Test results published in patent US8114581B2, “Methods and compositions for detecting neoplastic cells” (The Regents of the University of California, priority 2005, dated 2012).

Key:
Assay type in all cases: cell-based
[1] = molecular target: T1, Src (Homo sapiens, UniProt P12931); assay: Fibronectin-coated bead / laser-tweezer force-induced FRET response in HUVECs; conditions: HUVECs expressing Src reporter, PP1 10 uM
T1 construct: endogenous in cells; host or cells: HeLa
Experimental: (§1) To image the mechanical-force-induced Src activation, HUVECs were first starved with 0.5% FBS for 24 h and then kept in CO2-independent medium without serum (Gibco BRL) at 37° C. in a thermostatic chamber. A Zeiss axiovert inverted microscope equipped with a 440DF20 excitation filter and a 455DRLP dichroic mirror was integrated with the laser-tweezers. CFP and YFP emission images were acquired simultaneously with an ORCA ER CCD camera (Hamamatsu) through a Dual-View module (Optical-Insights). The CFP and YFP images were aligned pixel-by-pixel with our customized Matlab program by maximizing the normalized cross correlation coefficient of CFP and YFP fluorescence intensity images:
(§2) By taking the derivative of rho 2/B(κ) in Otsu's method 30 and calculating its first local minimum, a non parametric method was developed to calculate the intensity threshold to differentiate the edges of HUVECs from the background in CFP or YFP fluorescence intensity images. The intensity threshold was used to generate a binary mask image with values outside the cell set at zero to select the pixels located within the cell body in the CFP/YFP emission ratio images. […] For statistical analysis of long-range activation of Src, a pixel located within a cell at a given time is defined as ‘distally activated’ when: (1) its emission ratio value is above a certain percentage (98%, 90%, 80% and 50% were used as the thresholds) of pixel population in the same cell after 15 min of force stimulation, and (2) the distance between the pixel and the centre of the force-imposed bead is larger than half of the virtual radius of the cell, as shown in the following formula: […]
(§3) This critical force is a measure of the maximum trapping force, at a given laser power, exerted on the bead. […] Since the maximum trapping force occurs when the laser focus is away from the center and close to the edge of the bead, the experimental trapping force with the laser focused at 3.7 um off the bead center in our experiments was calculated from the Ashkin model of trapping force to be 300 pN. […]

[2] = molecular target: T1, Src; assay: EGF-induced FRET response of Src reporter in HeLa cells
Experimental: The HeLa or MEF cells expressing the desired exogenous proteins were starved with 0.5% FBS for 36-48 h before being subjected to EGF (50 ng ml^−1) or PDGF (10 ng ml^−1) stimulation. During imaging, the cells were maintained in Hanks' balanced salt solution (HBSS) with 20 mMHEPES (pH 7.4) and 2 g 1^−1 D-glucose at 25° C. Images were collected by using MetaFluor 6.0 software (Universal Imaging) with a 440DF20 excitation filter, a 455DRLP dichroic mirror, and two emission filters controlled by a filter changer (480DF30 for CFP and 535DF25 for YFP).
The various plasmids were transfected into HeLa, MEF, SYF−/−, or 293 cells at 80% confluence using the lipofectamine method (Invitrogen). The RetroMax retroviral expression system (Imgenex) was used to introduce genes into HUVECs. Various Src reporters incorporated in PCLNCX vector were co-transfected with PCL-Ampho packaging vector into 293 cells by using lipofectamine. The supernatant of […] 293 cells was collected after 2 days of transfection and filtered through 0.45 um pore filters. HUVECs were infected with 1:1 mixture of the collected supernatant and fresh EGM in the presence of 8 ug/ml polybrene.

[3] = system: Src; assay: Fibronectin-coated bead / laser-tweezer force-induced FRET response in HUVECs; conditions: HUVECs, membrane-targeted reporter, 300 pN; 1 hr incubation (cytochalasin D 0.2 uM, Nocodazole 1 uM); distal, but not local, responses
Experimental: as §1, §2, §3

T1 sequence (P12931 whole entry, species assumed): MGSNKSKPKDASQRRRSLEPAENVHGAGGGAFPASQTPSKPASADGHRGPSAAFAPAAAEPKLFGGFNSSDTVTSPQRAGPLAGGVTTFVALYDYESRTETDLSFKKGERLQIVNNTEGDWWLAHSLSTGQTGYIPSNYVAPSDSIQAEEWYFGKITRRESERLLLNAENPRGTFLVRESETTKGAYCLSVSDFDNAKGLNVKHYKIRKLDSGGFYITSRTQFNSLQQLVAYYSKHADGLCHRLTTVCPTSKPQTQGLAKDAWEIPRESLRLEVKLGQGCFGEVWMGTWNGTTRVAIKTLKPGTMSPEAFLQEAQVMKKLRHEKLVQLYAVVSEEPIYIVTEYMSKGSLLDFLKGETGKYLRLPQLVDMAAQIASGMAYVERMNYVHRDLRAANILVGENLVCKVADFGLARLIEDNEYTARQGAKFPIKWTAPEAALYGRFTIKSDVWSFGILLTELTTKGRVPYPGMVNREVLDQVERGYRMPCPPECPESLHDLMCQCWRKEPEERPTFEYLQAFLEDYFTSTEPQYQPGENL

Row | SMILES | effect on local FRET response caused by fibronectin-coated beads [1] | effect on EGF-induced FRET response of membrane-targeted reporter, inhibitor added after EGF ([2]; EGF 50 ng/ml, PP1 10 uM) | effect on EGF-induced FRET response of membrane-targeted reporter, pretreatment with inhibitor ([2]; PP1 10 uM for 1 hr before EGF 50 ng/ml) | effect on EGF-induced FRET response of Src reporter, inhibitor added after EGF ([2]; cytosolic Src reporter) | effect on EGF-induced FRET response of Src reporter, pretreatment with inhibitor ([2]; cytosolic Src reporter) | effect on force-induced distal FRET responses [3]
1 | Cc1ccc(-c2nn(C(C)(C)C)c3ncnc(N)c23)cc1 [PP1] | reversible | reversed | prevented | reversed | markedly reduced | –
2 | C=C1[C@@H](C)[C@H]2[C@H](Cc3ccccc3)NC(=O)[C@]23[C@H](OC(C)=O)/C=C/[C@@](C)(O)C(=O)[C@@H](C)C/C=C/[C@H]3[C@@H]1O [cytochalasin D] | – | – | – | – | – | blocked
3 | COC(=O)Nc1nc2ccc(C(=O)c3cccs3)cc2[nH]1 [nocodazole] | – | – | – | – | – | blocked
